According to patent US9409952B2, “Peptide-compound cyclization method” (Chugai Seiyaku Kabushiki Kaisha, priority 2011, dated 2016):
Like-named read-outs stand apart in the source and are kept apart here. Starred links: 1 amine or outer side, 2 acyl side, 3 side chain; linkers in the order of their positions; H or OH if unused. Positions of bridges follow the written chain, without caps; N, C: chain ends. Non-standard residues stand in square brackets, D forms with d. Residues, ends and D or L forms follow the SMILES beside them. *: point of attachment. hhPhe = N[C@@H](CCCc1ccccc1)C(=O)O; NMeF = CN[C@@H](Cc1ccccc1)C(=O)O; NMeGABA = CN(CCCC(=O)[*:2])[*:1]; NMeβAla = CN(CCC(=O)[*:2])[*:1]; NMeL = CN[C@@H](CC(C)C)C(=O)O; NMeV = CN[C@H](C(=O)O)C(C)C; NMeS = CN[C@@H](CO)C(=O)O; NMeA = CN[C@@H](C)C(=O)O; Piperidide = C1CCN(*)CC1; dNMeA = CN[C@H](C)C(=O)O; β3hA = C[C@H](N)CC(=O)O; Abu = CC[C@H](N)C(=O)O; Sar = CNCC(=O)O; tBu = CC(C)(C)*

Columns and labels:
[1] = PAMPA (parallel artificial membrane permeability assay); type: in vitro ADME; conditions: PAMPA
Method in brief: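 Artificial membrane was 10% (w/v) egg lecithin plus 0.5% (w/v) cholesterol in dodecane on a PVDF filter. A 10 mM DMSO stock was added at 0.5% (v/v) to donor buffer (50 mM MOPSO, pH 6.5, 5.0% glycocholic acid). After 18 h at 37 °C, LC/MS or LC/UV gave donor and acceptor levels for Pe.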

[2] = Metabolic stability in human hepatic microsome; type: in vitro ADME; conditions: microsomes
[3] = membrane permeation rate (Pe), 50 mM MOPSO buffer pH 6.5 with 5.0% glycocholic acid, 37° C., 18 hours, read-out: iPAMPA Pe
[4] = pH 7.4, human hepatic microsome, NADPH(+), read-out: CL NADPH(+)

Row | Structure (SMILES) | Papp at 18 hours, 50 µM [1, 3] | microsomal CLint at 1 uM [2, 4] | Papp at 18 hours, 50 µM ([1]; pH 6.5) | microsomal CLint at 1 uM ([2]; human, pH 7.4, CL NADPH(+))
1 | CC(C)C[C@H]1C(=O)N(C)[C@@H](CC(C)C)C(=O)N[C@H](C(=O)N(C)[C@@H](Cc2ccccc2)C(=O)N[C@@H](C)C(=O)N2CCCCC2)CC(=O)N[C@@H](C)C(=O)N(C)[C@@H](C)C(=O)N(C)[C@@H](Cc2ccccc2)C(=O)N(C)[C@@H](CC(C)C)C(=O)N[C@@H]([C@@H](C)O)C(=O)N(C)CC(=O)N[C@@H](C(C)C)C(=O)N1C [DP-188] (A[NMeA][NMeF][NMeL]T[Sar]V[NMeL][NMeL]D[NMeF]A-Piperidide; lactam N-10) | 28 ×10⁻⁶ cm/s | 84 µL/min/mg |  | 
2 | CC[C@@H]1NC(=O)[C@H](CC(C)C)N(C)C(=O)[C@H](CC(C)C)NC(=O)[C@H](CC(C)C)N(C)C(=O)CN(C)C(=O)C[C@H](C)NC(=O)[C@H](CO)N(C)C(=O)[C@H](CC(C)C)N(C)C(=O)[C@H](CC(C)C)N(C)C(=O)[C@H](CC(C)C)N(C)C(=O)[C@@H](CC(C)C)NC1=O [DP-641] (cyclo([Abu][dL][NMeL][NMeL][NMeL][NMeS][β3hA][Sar][NMeL]L[NMeL])) | 46 ×10⁻⁶ cm/s | 91 µL/min/mg |  | 
3 | CC(C)C[C@H]1C(=O)N[C@@H]([C@@H](C)O)C(=O)N[C@@H](C)C(=O)N(C)[C@@H](Cc2ccccc2)C(=O)N[C@H](C(=O)N2CCCCC2)CC(=O)N(C)[C@@H](C)C(=O)N(C)[C@@H](CC(C)C)C(=O)N[C@@H](Cc2ccccc2)C(=O)N1C [DP-700] ([NMeA][NMeL]F[NMeL]TA[NMeF]D-Piperidide; lactam N-8) | 49 ×10⁻⁶ cm/s | 398 µL/min/mg |  | 
4 | CC(C)C[C@H]1C(=O)N(C)[C@@H](Cc2ccccc2)C(=O)N[C@H](C(=O)N2CCCCC2)CC(=O)N(C)CC(=O)N[C@@H]([C@@H](C)O)C(=O)N(C)[C@@H](C)C(=O)N[C@@H](COC(C)(C)C)C(=O)N(C)[C@@H](Cc2ccccc2)C(=O)N1C [DP-521] ([Sar]T[NMeA]S(tBu)[NMeF][NMeL][NMeF]D-Piperidide; lactam N-8) | 44 ×10⁻⁶ cm/s | 125 µL/min/mg |  | 
5 | CC[C@H](C)[C@@H]1NC(=O)[C@H](Cc2ccccc2)N(C)C(=O)[C@@H](C)NC(=O)C[C@@H](C(=O)N(C)[C@@H](CC(C)C)C(=O)NCC(=O)N(C)[C@@H](CC(C)C)C(=O)N[C@@H](C)C(=O)N2CCCCC2)NC(=O)[C@H](C(C)C)NC(=O)CN(C)C(=O)[C@H]([C@@H](C)O)NC1=O [DP-568] ([dA][NMeF]IT[Sar]VD[NMeL]G[NMeL]A-Piperidide; lactam N-7) | 4.4 ×10⁻⁶ cm/s | 30 µL/min/mg |  | 
6 | CC[C@H](C)[C@@H]1NC(=O)[C@H](Cc2ccccc2)N(C)C(=O)[C@H](C)N(C)C(=O)[C@H]([C@@H](C)O)NC(=O)[C@@H](C)N(C)C(=O)C[C@@H](C(=O)N2CCCCC2)NC(=O)[C@H](CC(C)C)N(C)C(=O)[C@H](C)N(C)C(=O)[C@H](Cc2ccccc2)NC(=O)[C@H](C(C)C)N(C)C(=O)[C@@H]2CCCN2C1=O [DP-164] ([dNMeA]T[NMeA][NMeF]IP[NMeV]F[NMeA][NMeL]D-Piperidide; lactam N-11) |  |  | 30 ×10⁻⁶ cm/s | 253 µL/min/mg
7 | CC[C@H](C)[C@@H]1NC(=O)[C@H](Cc2ccccc2)N(C)C(=O)[C@H](CCCc2ccccc2)NC(=O)[C@H](C(C)C)N(C)C(=O)[C@H](CC(C)C)N(C)C(=O)[C@H](CC(C)C)NC(=O)[C@@H](C)NC(=O)C[C@@H](C(=O)N2CCCCC2)NC(=O)[C@H]([C@@H](C)O)NC(=O)[C@H](C)NC(=O)[C@H](C)N(C)C1=O [DP-731] ([dA]L[NMeL][NMeV][hhPhe][NMeF]I[NMeA]ATD-Piperidide; lactam N-11) | 48 ×10⁻⁶ cm/s | 53 µL/min/mg |  | 
8 | CC(C)C[C@H]1C(=O)N[C@H](C(=O)N2CCCCC2)CC(=O)N(C)CCC(=O)N[C@@H]([C@@H](C)O)C(=O)N(C)CC(=O)N[C@@H](COC(C)(C)C)C(=O)N(C)[C@@H](Cc2ccccc2)C(=O)N1C [DP-750] ([NMeβAla]T[Sar]S(tBu)[NMeF][NMeL]D-Piperidide; lactam N-7) | 13 ×10⁻⁶ cm/s | 49 µL/min/mg |  | 
9 | CC[C@H](C)[C@@H]1NC(=O)[C@H](CC(C)C)N(C)C(=O)[C@H](C)NC(=O)CCCN(C)C(=O)C[C@H](C)NC(=O)[C@H]([C@@H](C)O)NC(=O)[C@H](Cc2ccccc2)NC(=O)[C@H](C(C)C)N(C)C(=O)[C@H](CC(C)C)N(C)C1=O [DP-823] (cyclo(A[NMeL]I[NMeL][NMeV]FT[β3hA][NMeGABA])) | 31 ×10⁻⁶ cm/s | 254 µL/min/mg |  | 
